Source: patent publication EP1366764A1, “Method of screening for calcium receptor-active molecules” (The Brigham & Women's Hospital, Inc., priority 1993, dated 1994)

Key:
[1] = tested on: human parathyroid cells; experiment: Measurement of PTH secretion from human parathyroid cells (radioimmunoassay); format: cell-based; details: human (adenoma) parathyroid cells; at concentrations that caused the mobilization of intracellular Ca2+
Description: Cells were suspended in PCB containing 0.5 mM CaCl2 and 0.1% BSA.
For human cells, a commercially available radioimmunoassay kit (INS-PTH; Nichols Institute, Los Angeles, CA) which recognizes intact and N-terminal human PTH was used because GW-1 antibody recognizes human PTH poorly.

[2] = molecular target: T1, bovine parathyroid Ca^2+-receptor (Bos taurus, UniProt P35384); experiment: Cl- current in Xenopus oocytes expressing the cloned receptor (BoPCaR 1); format: cell-based
T1 construct: expressed in transfected cells; host or cells: Xenopus laevis oocytes injected with cRNA from the BoPCaR 1 cDNA (plasmid pSPORT1, ATCC 75416)
T1 sequence (P35384 20-1085): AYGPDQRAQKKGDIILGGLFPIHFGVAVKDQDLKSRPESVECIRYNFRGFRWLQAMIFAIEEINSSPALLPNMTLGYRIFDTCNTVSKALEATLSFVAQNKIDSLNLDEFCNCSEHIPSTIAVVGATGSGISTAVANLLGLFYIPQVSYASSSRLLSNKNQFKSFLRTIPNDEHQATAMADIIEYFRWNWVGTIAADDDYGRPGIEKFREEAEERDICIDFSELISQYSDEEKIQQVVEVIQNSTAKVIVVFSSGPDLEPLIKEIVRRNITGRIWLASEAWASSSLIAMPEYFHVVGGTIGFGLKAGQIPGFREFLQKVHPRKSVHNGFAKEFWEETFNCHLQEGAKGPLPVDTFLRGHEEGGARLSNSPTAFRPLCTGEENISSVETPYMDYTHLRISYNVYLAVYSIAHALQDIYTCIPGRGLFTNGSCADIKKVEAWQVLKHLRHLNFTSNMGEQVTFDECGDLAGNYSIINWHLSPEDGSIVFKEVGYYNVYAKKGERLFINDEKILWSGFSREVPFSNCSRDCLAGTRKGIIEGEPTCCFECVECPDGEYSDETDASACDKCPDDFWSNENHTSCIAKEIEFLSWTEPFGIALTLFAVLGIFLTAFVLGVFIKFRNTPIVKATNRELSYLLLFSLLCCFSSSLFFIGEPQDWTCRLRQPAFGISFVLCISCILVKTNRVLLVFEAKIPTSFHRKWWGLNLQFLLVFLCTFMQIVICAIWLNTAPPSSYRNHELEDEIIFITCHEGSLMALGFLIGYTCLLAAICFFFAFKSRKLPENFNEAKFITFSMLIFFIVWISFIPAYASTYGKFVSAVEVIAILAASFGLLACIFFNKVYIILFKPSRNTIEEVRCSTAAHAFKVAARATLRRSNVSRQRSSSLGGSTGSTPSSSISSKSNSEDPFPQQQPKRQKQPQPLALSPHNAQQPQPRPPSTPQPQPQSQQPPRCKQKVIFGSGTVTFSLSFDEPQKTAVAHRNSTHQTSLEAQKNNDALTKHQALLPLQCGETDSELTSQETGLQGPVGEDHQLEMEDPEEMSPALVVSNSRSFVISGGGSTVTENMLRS
Source text: An expression cloning strategy using Xenopus laevis oocytes was used to identify the cDNA encoding the bovine parathyroid calcium receptor. These techniques are described only briefly here, and a more complete description preceded this one in the sections describing techniques which may be used to clone additional forms of the Ca^2+-receptor from other cell types. Poly(A^+)-enriched RNA was initially prepared from bovine parathyroid glands using extraction with guanidinium thiocyanate, centrifugation through CsCl and oligo(dT) cellulose chromatography. […] No such currents were elicited in control eggs injected with water. […] The mRNA was then subjected to size fractionation, utilizing preparative, continuous flow agarose gel electrophoresis (Hediger, M.A., Anal. Biochem. 159:280-286 (1986)) to obtain fractions of poly(A^+)-RNA further enriched in transcripts coding for the Ca^2+-receptor. […] A plasmid containing the BoPCaR 1 […] (See plasmid, Figure 45; restriction map, Figure 46; and partial nucleotide sequence, Figure 47) has been deposited in the ATCC under deposit number ATCC 75416.
Several pharmacological and biochemical criteria were used to identify this clone as encoding a bona fide bovine parathyroid Ca^2+-receptor. […] These responses increased markedly over a period of one (1) to four (4) days after injection of the eggs with cRNA prepared from the BoPCaR 1 cDNA. […]

[3] = tested on: rat osteoclasts; experiment: Measurement of [Ca2+]i in single rat osteoclasts (indo-1); format: cell-based
[4] = Net positive charge of the molecule; format: physicochemical; details: at physiological pH (pH 7.3)
[5] = tested on: rMTC 6-23 cells; experiment: Measurement of cytosolic Ca2+ in C-cells (fura-2); format: cell-based, rat
[6] = molecular target: T2, Ca^2+ receptor (Bos taurus, UniProt P35384); experiment: 45Ca2+ release from Xenopus oocytes injected with bovine parathyroid mRNA; format: cell-based; details: 10 mM for 20 min; compared to mock challenge with buffer
T2 construct: oocytes were injected with bovine parathyroid mRNA or water; expressed in transfected cells; host or cells: Xenopus laevis oocytes injected with poly(A)+ mRNA from bovine (calf) parathyroid glands
T2 sequence (P35384 20-1085): T1 sequence (P35384 20-1085)
Source text: Prior to being stimulated, oocytes were loaded with ^45Ca^2+.

[7] = tested on: human parathyroid cells; experiment: Measurement of [Ca2+]i (fura-2) in human parathyroid cells; format: cell-based; details: 20 µM
[8] = molecular target: T3, Ca^2+ receptor (Homo sapiens, UniProt P41180); experiment: Cl- current in Xenopus oocytes injected with human parathyroid cell mRNA; format: cell-based
T3 construct: Oocytes were injected with poly(A)^+-enriched mRNA from human parathyroid tissue; expressed in transfected cells; host or cells: Xenopus laevis oocytes injected with poly(A)+ mRNA from human hyperplastic parathyroid glands (secondary HPT)
T3 sequence (P41180 20-1078): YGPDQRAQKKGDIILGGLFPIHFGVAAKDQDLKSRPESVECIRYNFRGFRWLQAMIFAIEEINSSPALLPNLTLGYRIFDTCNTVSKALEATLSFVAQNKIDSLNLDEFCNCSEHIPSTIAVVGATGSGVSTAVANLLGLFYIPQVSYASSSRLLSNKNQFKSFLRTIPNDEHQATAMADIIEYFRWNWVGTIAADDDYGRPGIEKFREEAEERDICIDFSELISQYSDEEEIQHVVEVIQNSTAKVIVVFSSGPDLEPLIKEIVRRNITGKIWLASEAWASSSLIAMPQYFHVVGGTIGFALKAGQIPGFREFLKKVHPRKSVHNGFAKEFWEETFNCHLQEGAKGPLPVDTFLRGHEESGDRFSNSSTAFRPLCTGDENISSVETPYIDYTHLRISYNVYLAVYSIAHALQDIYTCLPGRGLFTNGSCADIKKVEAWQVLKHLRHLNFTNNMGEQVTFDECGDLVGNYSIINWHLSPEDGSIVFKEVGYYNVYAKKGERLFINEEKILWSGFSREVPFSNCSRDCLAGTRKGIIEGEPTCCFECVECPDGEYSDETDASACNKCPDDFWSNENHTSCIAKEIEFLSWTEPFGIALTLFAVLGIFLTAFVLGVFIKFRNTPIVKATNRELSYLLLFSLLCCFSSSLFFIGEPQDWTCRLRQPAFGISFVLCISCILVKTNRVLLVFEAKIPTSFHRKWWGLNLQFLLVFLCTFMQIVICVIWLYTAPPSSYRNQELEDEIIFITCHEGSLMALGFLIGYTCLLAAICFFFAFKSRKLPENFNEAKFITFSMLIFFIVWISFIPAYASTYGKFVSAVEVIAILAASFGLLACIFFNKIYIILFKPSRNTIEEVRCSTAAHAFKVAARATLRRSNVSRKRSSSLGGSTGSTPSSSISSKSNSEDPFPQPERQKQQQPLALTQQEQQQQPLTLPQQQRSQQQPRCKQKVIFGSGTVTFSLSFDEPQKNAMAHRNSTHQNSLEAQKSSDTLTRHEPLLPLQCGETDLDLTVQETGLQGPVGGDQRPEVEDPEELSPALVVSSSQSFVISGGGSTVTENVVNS

[9] = polymers of 1000 amino acids; cited from earlier work

Compound | inhibition of PTH secretion [1] | concentrations producing changes in Cl^- current [2] | effect on the response to subsequent extracellular Ca^2+ ([3]; neomycin 10 mM (25 mM extracellular Ca2+), spermine 20 mM, verapamil 100 µM) | increases in [Ca^2+]i in rat osteoclasts ([3]; neomycin 10 mM, spermine 10 or 20 mM) | increase in [Ca^2+]i in osteoclasts ([3]; neomycin B 1 mM, spermine 1 or 5 mM) | EC50 (OSTEOCLAST) ([3]; rat osteoclasts, indo-1, "inactive" = no increase in cytosolic Ca2+ at 1 mM or 1-5 mM (footnote)) | Net (+) Charge [4] | EC50 (C-CELL) ([5]; rMTC 6-23 cells, fura-2, "inactive" = no increase in cytosolic Ca2+ at 1 mM or 1-5 mM (footnote)) | effect on basal [Ca^2+]i ([5]; spermine 10 mM, neomycin B 5 mM) | increase in ^45Ca^2+ release [6] | increase in [Ca^2+]i [7] | change in current in water-injected oocytes ([8]; 10 mM, five water-injected oocytes (specificity control)) | concentrations at which oscillatory increases in the Cl^- current were observed ([8]; 3 days after injection of human (hyperplastic) parathyroid poly(A)+ mRNA) | concentration causing the mobilization of intracellular Ca^2+ in oocytes ([8]; oocytes injected with mRNA from human parathyroid cells) | Kd [9]
NC[C@@H]1O[C@H](O[C@H]2[C@@H](O)[C@H](O[C@@H]3[C@@H](O)[C@H](N)C[C@H](N)[C@H]3O[C@H]3O[C@H](CN)[C@@H](O)[C@H](O)[C@H]3N)O[C@@H]2CO)[C@H](N)[C@@H](O)[C@@H]1O [neomycin B] | inhibited PTH secretion from human parathyroid cells | […] | […] | […] | […] | […] | […] | […] | without effect | 76% | […] | failed to cause any change in the current | […] | […] | 
polylysine |  |  |  |  |  |  |  |  |  |  |  |  |  |  | 0.5 nM
